From ChEMBL document CHEMBL3508140 (2016)

What was measured:
[1] = (§1) Decrease in leukocytes observed following intravenous idarubicin at 0.3 mg.Kg-1 per week in rat; format: toxicity, organism-based, SD, Blood; parameters: dosed compound id 2.46809e+06, dosed compound name Idarubicin, dose level Low, gender Mixed, route intravenous, sampling time 4 Week, study doses 0/0.3/0.6/1 mg.Kg-1; conditions: in vivo
[2] = Increase in serum phospholipid level following intravenous idarubicin at 0.3 mg.Kg-1 per week in rat; format: toxicity, organism-based, SD; parameters: dose 0.3 mg.Kg-1, dosed compound id 2.46809e+06, dosed compound name Idarubicin, dose level Low, gender Mixed, regimen Once per week, route intravenous, sampling time 8-22 Week, study doses 0/0.3/0.6/1 mg.Kg-1; conditions: in vivo
[3] = Terminal half-life of 4-dem-daunorubicin following intravenous 4-dem-daunorubicin at 1.0 mg.Kg-1 dose in dog; format: ADME, organism-based, Canis lupus familiaris; parameters: dose 1 mg.Kg-1, dosed compound id 2.46809e+06, dosed compound name Idarubicin, route intravenous; conditions: Beagle, plasma
[4] = Incidence of leukocyturia following intravenous idarubicin at 0.6 mg.Kg-1 per week in rat; format: toxicity, organism-based, SD; parameters: dose 0.6 mg.Kg-1, dosed compound id 2.46809e+06, dosed compound name Idarubicin, dose level Intermediate, gender Mixed, regimen Once per week, route intravenous, sampling time 36 Week, study doses 0/0.3/0.6/1 mg.Kg-1; conditions: in vivo
[5] = Mortality occurred following intravenous idarubicin at 0.6 mg.Kg-1 per week in rat; format: toxicity, organism-based, SD; parameters: dose 0.6 mg.Kg-1, dosed compound id 2.46809e+06, dosed compound name Idarubicin, dose level Intermediate, gender Mixed, regimen Once per week, route intravenous, sampling time 13 Week, study doses 0/0.3/0.6/1 mg.Kg-1; conditions: in vivo
[6] = Plasma clearance of 4-dem-daunorubicin following intravenous 4-dem-daunorubicin at 1.0 mg.Kg-1 dose in dog; format: ADME, organism-based, Canis lupus familiaris; parameters: dose 1 mg.Kg-1, dosed compound id 2.46809e+06, dosed compound name Idarubicin, route intravenous; conditions: Beagle, read-out: Clp
[7] = Increase in serum triglycerides level following intravenous idarubicin at 0.3 mg.Kg-1 per week in rat; format: toxicity, organism-based, SD; parameters: dose 0.3 mg.Kg-1, dosed compound id 2.46809e+06, dosed compound name Idarubicin, dose level Low, gender Mixed, regimen Once per week, route intravenous, sampling time 8-22 Week, study doses 0/0.3/0.6/1 mg.Kg-1; conditions: in vivo
[8] = Decrease in albumin due to persistent proteinuria following intravenous idarubicin at 0.6 mg.Kg-1 per week in rat; format: toxicity, organism-based, SD, Serum; parameters: dose 0.6 mg.Kg-1, dosed compound id 2.46809e+06, dosed compound name Idarubicin, dose level Intermediate, gender Mixed, regimen Once per week, route intravenous, sampling time 36 Week, study doses 0/0.3/0.6/1 mg.Kg-1; conditions: in vivo
[9] = Increase in serum total cholesterol level following intravenous idarubicin at 0.3 mg.Kg-1 per week in rat; format: toxicity, organism-based, SD; parameters: dose 0.3 mg.Kg-1, dosed compound id 2.46809e+06, dosed compound name Idarubicin, dose level Low, gender Mixed, regimen Once per week, route intravenous, sampling time 8-22 Week, study doses 0/0.3/0.6/1 mg.Kg-1; conditions: in vivo
[10] = Volume of distribution of 4-dem-daunorubicin following intravenous 4-dem-daunorubicin at 1.0 mg.Kg-1 dose in dog; format: ADME, organism-based, Canis lupus familiaris; parameters: dose 1 mg.Kg-1, dosed compound id 2.46809e+06, dosed compound name Idarubicin, route intravenous; conditions: Beagle, plasma
[11] = Increase in serum triglycerides level following intravenous idarubicin at 0.6 mg.Kg-1 per week in rat; format: toxicity, organism-based, SD; parameters: dose 0.6 mg.Kg-1, dosed compound id 2.46809e+06, dosed compound name Idarubicin, dose level Intermediate, gender Mixed, regimen Once per week, route intravenous, sampling time 8-22 Week, study doses 0/0.3/0.6/1 mg.Kg-1; conditions: in vivo
[12] = (§2) Decrease in leukocytes observed following intravenous idarubicin at 0.6 mg.Kg-1 per week in rat; format: toxicity, organism-based, SD, Blood; parameters: dose 0.6 mg.Kg-1, dosed compound id 2.46809e+06, dosed compound name Idarubicin, dose level Intermediate, gender Mixed, regimen Once per week, route intravenous, sampling time 4 Week, study doses 0/0.3/0.6/1 mg.Kg-1; conditions: in vivo
[13] = Incidence of persistent proteinuria following intravenous idarubicin at 0.6 mg.Kg-1 per week in rat; format: toxicity, organism-based, SD; parameters: dose 0.6 mg.Kg-1, dosed compound id 2.46809e+06, dosed compound name Idarubicin, dose level Intermediate, gender Mixed, regimen Once per week, route intravenous, sampling time 36 Week, study doses 0/0.3/0.6/1 mg.Kg-1; conditions: in vivo
[14] = Increase in serum total cholesterol level following intravenous idarubicin at 0.6 mg.Kg-1 per week in rat; format: toxicity, organism-based, SD; parameters: dose 0.6 mg.Kg-1, dosed compound id 2.46809e+06, dosed compound name Idarubicin, dose level Intermediate, gender Mixed, regimen Once per week, route intravenous, sampling time 8-22 Week, study doses 0/0.3/0.6/1 mg.Kg-1; conditions: in vivo
[15] = Incidence of persistent proteinuria following intravenous idarubicin at 0.3 mg.Kg-1 per week in rat; format: toxicity, organism-based, SD; parameters: dose 0.3 mg.Kg-1, dosed compound id 2.46809e+06, dosed compound name Idarubicin, dose level Low, gender Mixed, regimen Once per week, route intravenous, sampling time 36 Week, study doses 0/0.3/0.6/1 mg.Kg-1; conditions: in vivo
[16] = Incidence of leukocyturia following intravenous idarubicin at 0.3 mg.Kg-1 per week in rat; format: toxicity, organism-based, SD; parameters: dose 0.3 mg.Kg-1, dosed compound id 2.46809e+06, dosed compound name Idarubicin, dose level Low, gender Mixed, regimen Once per week, route intravenous, sampling time 36 Week, study doses 0/0.3/0.6/1 mg.Kg-1; conditions: in vivo
[17] = as §1; format: toxicity, organism-based, SD, Blood; parameters: dose 0.3 mg.Kg-1, dosed compound id 2.46809e+06, dosed compound name Idarubicin, dose level Low, gender Mixed, regimen Once per week, route intravenous, sampling time 8 Week, study doses 0/0.3/0.6/1 mg.Kg-1; conditions: in vivo
[18] = Increase in serum phospholipid level following intravenous idarubicin at 0.6 mg.Kg-1 per week in rat; format: toxicity, organism-based, SD; parameters: dose 0.6 mg.Kg-1, dosed compound id 2.46809e+06, dosed compound name Idarubicin, dose level Intermediate, gender Mixed, regimen Once per week, route intravenous, sampling time 8-22 Week, study doses 0/0.3/0.6/1 mg.Kg-1; conditions: in vivo
[19] = Decrease in albumin due to persistent proteinuria following intravenous idarubicin at 0.3 mg.Kg-1 per week in rat; format: toxicity, organism-based, SD, Serum; parameters: dose 0.3 mg.Kg-1, dosed compound id 2.46809e+06, dosed compound name Idarubicin, dose level Low, gender Mixed, regimen Once per week, route intravenous, sampling time 36 Week, study doses 0/0.3/0.6/1 mg.Kg-1; conditions: in vivo
[20] = as §2; format: toxicity, organism-based, SD, Blood; parameters: dosed compound id 2.46809e+06, dosed compound name Idarubicin, dose level Intermediate, gender Mixed, route intravenous, sampling time 8 Week, study doses 0/0.3/0.6/1 mg.Kg-1; conditions: in vivo

Q: What does the source list for `CC(=O)[C@]1(O)Cc2c(O)c3c(c(O)c2[C@@H](O[C@H]2C[C@H](N)[C@H](O)[C@H](C)O2)C1)C(=O)c1ccccc1C3=O` [IDARUBICIN]?
A: WBC_CHANGE [1]: 35%; PHOSLPD_CHANGE [2]: OUTCOME = Increased; half-life [3]: 6 min; Incidence [4]: OUTCOME = Observed; Mortality [5]: OUTCOME = Observed, N_AFFECTED = 12; clearance [6]: 711 mL/min; TRIG_CHANGE [7]: OUTCOME = Increased; ALB_CHANGE [8]: OUTCOME = Decreased; CHOL_CHANGE [9]: OUTCOME = Increased; Vd [10]: 34.5 L/kg; TRIG_CHANGE [11]: OUTCOME = Increased; WBC_CHANGE [12]: 50%; Incidence [13]: OUTCOME = Observed; CHOL_CHANGE [14]: OUTCOME = Increased; Incidence [15]: OUTCOME = Observed; Incidence [16]: OUTCOME = Observed; WBC_CHANGE [17]: 35%; PHOSLPD_CHANGE [18]: OUTCOME = Increased; ALB_CHANGE [19]: OUTCOME = Decreased; WBC_CHANGE [20]: 55%
